Reference: patent US20250154169A1, “COMPOUNDS AND METHODS FOR MODULATING SPLICING” (REMIX THERAPEUTICS INC., priority 2021, published 2025)
Several values for one entry are separate records, joined by “and”; a condition that tells them apart may be missing. Identical values can stand only once. Counter-ions that a name gives are not always drawn. Like-named read-outs stand apart in the source and are kept apart here.

Assays:
MYB = assay: Protein abundance, HiBit-assay system (Promega), MYB; assay type: cell-based; conditions: Table 6; HiBiT-modified K562 cells, 24 hours
Source text: In some embodiments, a compound of Formula (I) or (II) or a pharmaceutically acceptable salt thereof, e.g., as described herein, modulates the expression of a target protein (e.g., HTT or MYB) in a reference cell or sample. In an embodiment, a compound of Formula (I) or (II) or a pharmaceutically acceptable salt thereof, e.g., as described herein, increases the expression of a target protein (e.g., HTT or MYB) in a reference cell or sample. In an embodiment, a compound of Formula (I) or (II) or a pharmaceutically acceptable salt thereof, e.g., as described herein, decreases the expression of a target protein (e.g., HTT or MYB) in a reference cell or sample. The effect of an exemplary compound of Formula (I) or (II) on protein abundance may be measured using a standard assay for measuring protein abundance, such as the HiBit-assay system (Promega). In this assay, percent response for each respective cell line may be as calculated at each compound concentration as follows: % response=100*(S−PC)/(NC−PC). For the normalized response at each concentration, a four-parameter logistical regression may be fit to the data and the response may be interpolated at the 50% value to determine a concentration for protein abundance at 50% (IC50) an untreated control. In an embodiment, a compound of Formula (I) or (II) or a pharmaceutically acceptable salt thereof, e.g., as described herein, has a protein abundance response less than 100 nM. In an embodiment, a compound of Formula (I) or (II) or a pharmaceutically acceptable salt thereof, e.g., as described herein, has a protein abundance response between 100-1000 nM. In an embodiment, a compound of Formula (I) or (II) or a pharmaceutically acceptable salt thereof, e.g., as described herein, has a protein abundance response greater than 1000 nM. In an embodiment, a compound of Formula (I) or (II) or a pharmaceutically acceptable salt thereof, e.g., as described herein, has a protein abundance response greater than 10 uM. In an embodiment, a compound of Formula (I) or (II) or a pharmaceutically acceptable salt thereof, e.g., as described herein, modulates the protein abundance of a target protein by about 1%, 5%, 10%, 15%, 20%, 25%, 30%, 35%, 40%, 45%, 50%, 55%, 60%, 65%, 70%, 75%, 80%, 85%, 90%, 95%, 99% or more, e.g., compared with a reference compound.

MYB mRNA = assay: Splicing RT-qPCR assay, MYB canonical (CJ) and alternative (AJ) junction mRNA; assay type: cell-based, human; conditions: Homo sapiens; for AC50: read-out: MYB AJ (AC50, increase in alternative junction mRNA)
In short: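 One-step RT-qPCR on cell lysates, CJ and AJ isoforms quantified; housekeeping normalization GAPDH/GUSB (K562) or PPIA (A673). Cells: A673 in DMEM/10% FBS or K562 in IMDM/10% FBS. Compounds 11-pt 3-fold, top 10 uM, 24 h, 37 °C, 5% CO2.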

[1] = Tables 4A/4B, canonical junction qPCR panel, read-out: MYB (IC50, decrease in CJ mRNA, gene panel)
[2] = 24 h, A673 or K562 cells, 24 hours compound treatment, RT-qPCR
[3] = 24 h, A673 or K562 cells, 24 hours compound treatment, RT-qPCR, read-out: MYB CJ (IC50, decrease in canonical junction mRNA)
[4] = A673 or K562 cells, 24 hours compound treatment, RT-qPCR
[5] = A673 or K562 cells, 24 hours compound treatment, RT-qPCR, read-out: MYB CJ (IC50, decrease in canonical junction mRNA)

Compound	IC50 (MYB)	IC50 (MYB mRNA; [1])	AC50 (MYB mRNA; [2])	IC50 (MYB mRNA; [3])	AC50 (MYB mRNA; [4])	IC50 (MYB mRNA; [5])
Cc1cn2nc(NC(=O)c3ccc(C4CCNCC4)c4cc(C)oc34)cc(C)c2n1 [Compound 118]	< 100 nM	100 to 1000 nM				
Cc1cn2nc(NC(=O)c3ccc(C4CCNCC4)c4ccoc34)cc(C)c2n1 [Compound 119]	1000 to 10000 nM	1000 to 10000 nM	1000 to 10000 nM	1000 to 10000 nM		
Cc1cn2cc(NC(=O)c3ccc(N4CCNCC4)c4nc(C)oc34)cc(F)c2n1 [Compound 140]	1000 to 10000 nM	1000 to 10000 nM				
Cc1cn2cc(NC(=O)c3ccc(N4CCNCC4)c4oc(C)nc34)cc(F)c2n1 [Compound 141]	100 to 1000 nM	< 100 nM	< 100 nM	< 100 nM		
Cc1cn2cc(NC(=O)c3ccc(N4CCNCC4)c4cc(C)oc34)cc(F)c2n1 [Compound 142]	< 100 nM	100 to 1000 nM	100 to 1000 nM	100 to 1000 nM		
Cc1cn2cc(NC(=O)c3ccc(N4CCNCC4)c4cn(C)nc34)cc(F)c2n1 [Compound 143, N-{8-fluoro-2-methylimidazo[1,2-a]pyridin-6-yl}-2-methyl-4-(piperazin-1-yl) indazole-7-carboxamide]	< 100 nM	< 100 nM				
Cc1cn2cc(NC(=O)c3ccc(C4CCNCC4)c4cc(C)oc34)cc(F)c2n1 [Compound 145]	< 100 nM	100 to 1000 nM	100 to 1000 nM	100 to 1000 nM		
Cc1cn2nc(NC(=O)c3ccc(N4CCNCC4)c4cc(C)oc34)cc(C)c2n1 [Compound 148]	1000 to 10000 nM	1000 to 10000 nM	1000 to 10000 nM	1000 to 10000 nM		
Cc1cn2cc(NC(=O)c3ccc(C4CCNCC4)c4ccoc34)cc(F)c2n1 [Compound 149]	< 100 nM	100 to 1000 nM	100 to 1000 nM	100 to 1000 nM		
Cc1cn2cc(NC(=O)c3ccc(N4CCN(C)CC4)c4cc(C)oc34)cc(F)c2n1 [Compound 189]	100 to 1000 nM	100 to 1000 nM	100 to 1000 nM	100 to 1000 nM		
Cc1cn2cc(NC(=O)c3ccc(N4CCNC(C)C4)c4cc(C)oc34)cc(F)c2n1 (centres unmarked) [Compound 190]	< 100 nM	< 100 nM	< 100 nM	< 100 nM		
Cc1cn2cc(NC(=O)c3ccc(N4CCN(C)C(C)C4)c4cc(C)oc34)cc(F)c2n1 (centres unmarked) [Compound 191]	< 100 nM and 100 to 1000 nM	100 to 1000 nM	100 to 1000 nM	100 to 1000 nM		
CCC1CN(c2ccc(C(=O)Nc3cc(F)c4nc(C)cn4c3)c3oc(C)cc23)CCN1 (centres unmarked) [Compound 192]	100 to 1000 nM	100 to 1000 nM	100 to 1000 nM	100 to 1000 nM		
Cc1cn2cc(NC(=O)c3ccc(N4CCNC(C)(C)C4)c4cc(C)oc34)cc(F)c2n1 [Compound 193]	100 to 1000 nM	100 to 1000 nM	100 to 1000 nM	100 to 1000 nM		
Cc1cn2cc(NC(=O)c3ccc(N4CCNC5(CC5)C4)c4cc(C)oc34)cc(F)c2n1 [Compound 194]	100 to 1000 nM	100 to 1000 nM				
Cc1cn2cc(NC(=O)c3ccc(N4CC(C)(C)NC(C)(C)C4)c4cc(C)oc34)cc(F)c2n1 [Compound 195]	1000 to 10000 nM	100 to 1000 nM	1000 to 10000 nM	100 to 1000 nM		

Compound	IC50 (MYB)	IC50 (MYB mRNA; [1])	AC50 (MYB mRNA; [2])	IC50 (MYB mRNA; [3])	AC50 (MYB mRNA; [4])	IC50 (MYB mRNA; [5])
CCNC1CCN(c2ccc(C(=O)Nc3cc(F)c4nc(C)cn4c3)c3oc(C)cc23)CC1 [Compound 196]	< 100 nM	100 to 1000 nM				
Cc1cn2cc(NC(=O)c3ccc(N4CCC(NC(C)(C)C)CC4)c4cc(C)oc34)cc(F)c2n1 [Compound 197]	1000 to 10000 nM	1000 to 10000 nM	1000 to 10000 nM	1000 to 10000 nM		
CC1=CC2C(N3CCC(N(C)C)CC3)=CC=C(C(=O)Nc3cc(F)c4nc(C)cn4c3)C2O1 (centres unmarked) [Compound 198]	< 100 nM	< 100 nM				
Cc1cn2cc(NC(=O)c3ccc(N4CCN5CCCC5C4)c4cc(C)oc34)cc(F)c2n1 (centres unmarked) [Compound 199]	< 100 nM	100 to 1000 nM	100 to 1000 nM	100 to 1000 nM		
Cc1cn2cc(NC(=O)c3ccc(C4CCNCC4)c4cn(C)nc34)cc(F)c2n1 [Compound 208]	< 100 nM	< 100 nM				
Cc1cc2c(N3CCNCC3)ccc(C(=O)Nc3cc(F)c4cn(C)nc4c3)c2o1 [Compound 217]	> 10000 nM	> 10000 nM	> 10000 nM	> 10000 nM		
CCn1cc2c(N3CC[C@@H](NC)C3)ccc(C(=O)Nc3cc(Cl)c4nc(C)cn4c3)c2n1 [Compound 556, N-{8-chloro-2-methylimidazo[1,2-a]pyridin-6-yl}-2-ethyl-4-[(3R)-3-(methylamino)pyrrolidin-1-yl]indazole-7-carboxamide]	1000 to 10000 nM		> 10000 nM	1000 to 10000 nM		
CCn1cc2c(N3CCC(N)(CC)CC3)cc(F)c(C(=O)Nc3cc(F)c4nc(C)cn4c3)c2n1 [Compound 557, 4-(4-amino-4-ethylpiperidin-1-yl)-2-ethyl-6-fluoro-N-{8-fluoro-2-methylimidazo[1,2-a]pyridin-6-yl}indazole-7-carboxamide]	< 100 nM		< 100 nM	< 100 nM		
CCn1cc2c(N3CCC(N[C@H]4C[C@@H](O)C4)CC3)ccc(C(=O)Nc3cc(F)c4nc(C)cn4c3)c2n1 [Compound 559, 2-ethyl-N-{8-fluoro-2-methylimidazo[1,2-a]pyridin-6-yl}-4-(4-{[(1s,3s)-3-hydroxycyclobutyl]amino}piperidin-1-yl) indazole-7-carboxamide]	< 100 nM		< 100 nM	< 100 nM		
CCn1cc2c(N3CCC(N[C@H]4C[C@H](O)C4)CC3)ccc(C(=O)Nc3cc(F)c4nc(C)cn4c3)c2n1 [Compound 560, 2-ethyl-N-{8-fluoro-2-methylimidazo[1,2-a]pyridin-6-yl}-4-(4-{[(1r,3r)-3-hydroxycyclobutyl]amino}piperidin-1-yl) indazole-7-carboxamide]	< 100 nM		100 to 1000 nM	100 to 1000 nM		
Cc1cn2cc(NC(=O)c3ccc(N4CC[C@@H](N5CCNCC5)C4)c4cn(C)nc34)cc(F)c2n1 [Compound 562, N-{8-fluoro-2-methylimidazo[1,2-a]pyridin-6-yl}-2-methyl-4-[(3R)-3-(piperazin-1-yl)pyrrolidin-1-yl]indazole-7-carboxamide hydrochloride]	> 10000 nM		1000 to 10000 nM	1000 to 10000 nM		
Cc1cn2cc(NC(=O)c3ccc(N4CC5NC5C4)c4cn(C)nc34)cc(F)c2n1 (centres unmarked) [Compound 563, 4-{3,6-diazabicyclo[3.1.0]hexan-3-yl}-N-{8-fluoro-2-methylimidazo[1,2-a]pyridin-6-yl}-2-methylindazole-7-carboxamide]	< 100 nM				< 100 nM	< 100 nM
Cc1cn2cc(NC(=O)c3ccc(N4C5CNCC54)c4cn(C)nc34)cc(F)c2n1 (centres unmarked) [Compound 564, 4-{3,6-diazabicyclo[3.1.0]hexan-6-yl}-N-{8-fluoro-2-methylimidazo[1,2-a]pyridin-6-yl}-2-methylindazole-7-carboxamide]	100 to 1000 nM				< 100 nM	< 100 nM
CCn1cc2c(N3CCNCC3)ccc(C(=O)Nc3cc(F)c4nc(C)c(F)n4c3)c2n1 [Compound 565, N-{3,8-difluoro-2-methylimidazo[1,2-a]pyridin-6-yl}-2-ethyl-4-(piperazin-1-yl) indazole-7-carboxamide; trifluoroacetic acid]	1000 to 10000 nM		> 10000 nM	> 10000 nM		
CCn1cc2c(N3CCNCC3)ccc(C(=O)Nc3cn4cc(C)nc4c(Oc4ccccc4)n3)c2n1 [Compound 566, 2-ethyl-N-{2-methyl-8-phenoxyimidazo[1,2-a]pyrazin-6-yl}-4-(piperazin-1-yl) indazole-7-carboxamide]	100 to 1000 nM		100 to 1000 nM	100 to 1000 nM		
